For one data set, the target named is T1, hP2X7R (Homo sapiens, UniProt Q99572).
T1 sequence (Q99572 1-595): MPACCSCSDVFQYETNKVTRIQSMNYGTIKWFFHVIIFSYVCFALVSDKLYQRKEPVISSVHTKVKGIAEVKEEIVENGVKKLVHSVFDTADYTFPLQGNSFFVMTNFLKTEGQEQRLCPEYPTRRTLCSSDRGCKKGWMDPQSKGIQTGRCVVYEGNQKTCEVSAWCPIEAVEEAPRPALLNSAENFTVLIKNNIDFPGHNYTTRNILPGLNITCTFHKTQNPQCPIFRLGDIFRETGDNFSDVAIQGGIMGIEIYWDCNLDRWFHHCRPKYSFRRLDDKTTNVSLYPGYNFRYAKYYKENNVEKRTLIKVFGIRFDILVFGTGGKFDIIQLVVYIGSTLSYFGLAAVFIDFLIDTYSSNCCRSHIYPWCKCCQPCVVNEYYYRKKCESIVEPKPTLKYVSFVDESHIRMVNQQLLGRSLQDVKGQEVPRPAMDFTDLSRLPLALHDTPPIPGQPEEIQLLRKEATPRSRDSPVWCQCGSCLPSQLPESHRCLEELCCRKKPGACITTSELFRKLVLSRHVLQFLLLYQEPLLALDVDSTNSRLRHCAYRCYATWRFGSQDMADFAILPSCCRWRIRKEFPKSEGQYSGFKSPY
In words: Ethidium bromide accumulation in hP2X7R-expressing HEK293 cells. It is filed as cell-based. Further details: expressed in transfected cells. Particulars: for mean % of maximum accumulation / MAX100 (% of maximum accumulation, replicates 1-3): BzATP 6 μM; for MAX100 (% of maximum accumulation, replicates 1-3): single replicates. As for the experimental part: Human P2X7R-expressing HEK293 cells were cultured in a humidified atmosphere of 5% CO2 at 37 °C in Dulbecco’s Modification of Eagle’s Medium (DMEM; Corning) supplemented with 10% (v/v) fetal bovine serum (Corning) and 1% (v/v) antibiotic–antimycotic (Gibco)[75]. To perform the assay, the DMEM was removed, and the HEK293 cells were washed with 3 mL of 1X DPBS (Dulbecco’s Phosphate-Buffered Saline; Corning). After the removal of DPBS solution, the cells were detached from the dish with 1 mL of trypsin/EDTA (Gibco), and the cells were collected by centrifugation. The cells (density of 2.25 × 10^7) were re-suspended in 4-(2-hydroxyethyl)-1-piperazineethanesulfonic acid (HEPES)-buffered salt solution consisting of 140 mM potassium chloride, 1 mM ethylene diamine tetraacetic acid (EDTA), 5 mM glucose, 20 mM HEPES, and 0.1 mM ethidium bromide (pH 7.4). The vehicles or appropriate range of concentrations of compounds (10 μL, pre-diluted in 10% (v/v) DMSO in DW from 10 mM stock) were added to each well of 96-well black plate (Corning), and 80 μL of the cell suspension was subsequently added to each well. BzATP (10 μL, pre-diluted in DW from 10 mM stock) was then added, and the final assay volume was maintained at 100 μL. After the incubation in 5% CO2 at 37 °C for 2 h, the ethidium dye uptake was detected by measuring the fluorescence (excitation wavelength of 530 nm and emission wavelength of 590 nm) of each well using a CHAMELEON™ Multi-Technology Plate Reader. The antagonistic activities of compounds are expressed as the percentages relative to the maximum accumulation of ethidium bromide observed in the control group with the stimulation of the hP2X7R by an agonist, BzATP. The IC50 values of compounds as antagonists were calculated using nonlinear regression analysis using OriginPro 9.1 software.

Data set [1] concerns the molecule itself. In words: cryo-EM structure; purified detergent-solubilised receptor (20 mM HEPES pH 7.0, 100 mM NaCl, 0.5 mM C12M); apo, or incubated with 900 uM ATP or antagonist at 3-4x the molar concentration of the monomer.
The mark [2] stands for this setting: antagonist concentration 3.2 (unit not given).
Setting [3] is: antagonist concentration 16 (unit not given).
Setting [4] is: antagonist concentration 80 (unit not given).
The mark [5] stands for this setting: antagonist concentration 400 (unit not given).
Where [6] appears, read: antagonist concentration 2000 (unit not given).
Setting [7] is: antagonist concentration 10000 (unit not given).

These results are taken from article PMC12436592 (Nature Communications, 2025).

Where “and” joins values, the source holds several entries; their conditions need not be identical. Equal entries are not always repeated.

By IC50 is commonly meant the concentration needed to halve the response being measured. Read a high IC50 as lower potency. The term stoichiometry N denotes a count of units in the complex or per binding partner.

With `O=C(NNc1ccccc1Cl)C12C3C4C5C3C1C5C42` (stereo not shown) [UB-ALT-P38], the “mean % of maximum accumulation” value on hP2X7R (setting [2]) came out at 92.6488%; at hP2X7R (setting [3]) it was 90.4406%; at hP2X7R (setting [4]), 85.6943%; at hP2X7R (setting [5]), 54.1625%; on hP2X7R (setting [6]), 8.486%; on hP2X7R (setting [7]), 7.125%. On hP2X7R (hP2X7R, ethidium bromide accumulation, mean ± SD, triplicate), this molecule came in with an IC50 of 430 ± 64 nM. The molecule further came in with a ΔΔGexp at hP2X7R (relative to UB-ALT-P30, from experimental pIC50 values, T = 298 K) of 1.36 ± 1.50 kcal/mol. In addition, the “MAX100 (% of maximum accumulation, replicates 1-3)” value is 94.8207 and 85.2995 and 97.8261 on hP2X7R (setting [2]); 88.8446 and 87.4773 and 95 at hP2X7R (setting [3]); 92.8287 and 88.3848 and 75.8696 on hP2X7R (setting [4]); 70.5179 and 47.1869 and 44.7826 at hP2X7R (setting [5]); 13.1474 and 15.7895 and -3.478 at hP2X7R (setting [6]); 12.9482 and 12.3412 and -3.913 at hP2X7R (setting [7]).

B1: full-length wild-type mouse P2X7 receptor (receptor, UniProt Q9Z1M0 1-595, looked up)
chain: MPACCSWNDVLQYETNKVTRIQSTNYGTVKWVLHMIVFSYISFALVSDKLYQRKEPVISSVHTKVKGIAEVTENVTEGGVTKLGHSIFDTADYTFPLQGNSFFVMTNYVKSEGQVQTLCPEYPRRGAQCSSDRRCKKGWMDPQSKGIQTGRCVPYDKTRKTCEVSAWCPTEEEKEAPRPALLRSAENFTVLIKNNIHFPGHNYTTRNILPTMNGSCTFHKTWDPQCSIFRLGDIFQEAGENFTEVAVQGGIMGIEIYWDCNLDSWSHHCRPRYSFRRLDDKNTDESFVPGYNFRYAKYYKENNVEKRTLIKAFGIRFDILVFGTGGKFDIIQLVVYIGSTLSYFGLATVCIDLLINTYSSAFCRSGVYPYCKCCEPCTVNEYYYRKKCESIMEPKPTLKYVSFVDEPHIRMVDQQLLGKSLQVVKGQEVPRPQMDFSDLSRLSLSLHDSPLTPGQSEEIQLLHEEVAPKSGDSPSWCQCGNCLPSRLPEQRRALEELCCRRKPGRCITTSKLFHKLVLSRDTLQLLLLYQDPLLVLGEEATNSRLRHRAYRCYATWRFGSQDMADFAILPSCCRWRIRKEFPKTEGQYSGFKYPY
modifications: palmitoylation of residues in the C-cys anchor
notes: P2X7 receptor (P2X purinoceptor 7), mouse, full-length wild-type, no mutations or truncations; C-terminal HRV 3-C site, GFP and histidine tag removed during purification; Homotrimeric ion channel; solved in the apo closed state; also called mP2X7R; mP2X7; not shown: GFP, C-terminal, cleaved
Take B1: in data set [1], the “stoichiometry N” value stood at 3.

B2: full-length wild-type human P2X7 receptor (receptor, UniProt Q99572 1-595, looked up)
chain: MPACCSCSDVFQYETNKVTRIQSMNYGTIKWFFHVIIFSYVCFALVSDKLYQRKEPVISSVHTKVKGIAEVKEEIVENGVKKLVHSVFDTADYTFPLQGNSFFVMTNFLKTEGQEQRLCPEYPTRRTLCSSDRGCKKGWMDPQSKGIQTGRCVVYEGNQKTCEVSAWCPIEAVEEAPRPALLNSAENFTVLIKNNIDFPGHNYTTRNILPGLNITCTFHKTQNPQCPIFRLGDIFRETGDNFSDVAIQGGIMGIEIYWDCNLDRWFHHCRPKYSFRRLDDKTTNVSLYPGYNFRYAKYYKENNVEKRTLIKVFGIRFDILVFGTGGKFDIIQLVVYIGSTLSYFGLAAVFIDFLIDTYSSNCCRSHIYPWCKCCQPCVVNEYYYRKKCESIVEPKPTLKYVSFVDESHIRMVNQQLLGRSLQDVKGQEVPRPAMDFTDLSRLPLALHDTPPIPGQPEEIQLLRKEATPRSRDSPVWCQCGSCLPSQLPESHRCLEELCCRKKPGACITTSELFRKLVLSRHVLQFLLLYQEPLLALDVDSTNSRLRHCAYRCYATWRFGSQDMADFAILPSCCRWRIRKEFPKSEGQYSGFKSPY
modifications: palmitoylation of residues in the C-cys anchor; limited glycosylation, acylation and palmitoylation modelled
notes: P2X7 receptor (P2X purinoceptor 7), human, full-length wild-type, no mutations or truncations; C-terminal HRV 3-C site, GFP and histidine tag removed during purification; Homotrimeric ion channel; also called hP2X7R; hP2X7; not shown: GFP, C-terminal, cleaved
On to B2, for which, in data set [1], the “stoichiometry N” value stood at 3.
